From patent publication US20200239530A1, “COMPOUNDS AND METHODS OF MODULATING PROTEIN DEGRADATION” (Vividion Therapeutics, Inc., priority 2017, published 2020) come the findings set out here.

Holding throughout (assay): Cysteine liganding, probe competition
Type in all cases: binding

Test [1] addresses T1, CTSC Dipeptidyl peptidase 1 (Homo sapiens, UniProt P53634).
T1 construct: 200 μL of lysate containing 5 mg/ml proteome was treated with 2 μL of 100× compound stock; endogenous in cells
In outline: (§1)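 Lysates from probe-sonicated cells in PBS (5 mg/ml proteome) were exposed to compound for 1 hr at 25° C, then labelled with desthiobiotin iodoacetamide probe (10 mM stock) for 1 hr at 25° C. Probe-tagged peptides were streptavidin-enriched after trypsin digestion.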

The target in test [2] is T2, INTS1 Integrator complex subunit 1 (Homo sapiens, UniProt Q8N201).
T2 construct: Cells were resuspended in cold PBS on ice and sonicated with a probe sonicator to achieve lysis; endogenous in cells
T2 sequence (Q8N201 whole entry, one chain of several): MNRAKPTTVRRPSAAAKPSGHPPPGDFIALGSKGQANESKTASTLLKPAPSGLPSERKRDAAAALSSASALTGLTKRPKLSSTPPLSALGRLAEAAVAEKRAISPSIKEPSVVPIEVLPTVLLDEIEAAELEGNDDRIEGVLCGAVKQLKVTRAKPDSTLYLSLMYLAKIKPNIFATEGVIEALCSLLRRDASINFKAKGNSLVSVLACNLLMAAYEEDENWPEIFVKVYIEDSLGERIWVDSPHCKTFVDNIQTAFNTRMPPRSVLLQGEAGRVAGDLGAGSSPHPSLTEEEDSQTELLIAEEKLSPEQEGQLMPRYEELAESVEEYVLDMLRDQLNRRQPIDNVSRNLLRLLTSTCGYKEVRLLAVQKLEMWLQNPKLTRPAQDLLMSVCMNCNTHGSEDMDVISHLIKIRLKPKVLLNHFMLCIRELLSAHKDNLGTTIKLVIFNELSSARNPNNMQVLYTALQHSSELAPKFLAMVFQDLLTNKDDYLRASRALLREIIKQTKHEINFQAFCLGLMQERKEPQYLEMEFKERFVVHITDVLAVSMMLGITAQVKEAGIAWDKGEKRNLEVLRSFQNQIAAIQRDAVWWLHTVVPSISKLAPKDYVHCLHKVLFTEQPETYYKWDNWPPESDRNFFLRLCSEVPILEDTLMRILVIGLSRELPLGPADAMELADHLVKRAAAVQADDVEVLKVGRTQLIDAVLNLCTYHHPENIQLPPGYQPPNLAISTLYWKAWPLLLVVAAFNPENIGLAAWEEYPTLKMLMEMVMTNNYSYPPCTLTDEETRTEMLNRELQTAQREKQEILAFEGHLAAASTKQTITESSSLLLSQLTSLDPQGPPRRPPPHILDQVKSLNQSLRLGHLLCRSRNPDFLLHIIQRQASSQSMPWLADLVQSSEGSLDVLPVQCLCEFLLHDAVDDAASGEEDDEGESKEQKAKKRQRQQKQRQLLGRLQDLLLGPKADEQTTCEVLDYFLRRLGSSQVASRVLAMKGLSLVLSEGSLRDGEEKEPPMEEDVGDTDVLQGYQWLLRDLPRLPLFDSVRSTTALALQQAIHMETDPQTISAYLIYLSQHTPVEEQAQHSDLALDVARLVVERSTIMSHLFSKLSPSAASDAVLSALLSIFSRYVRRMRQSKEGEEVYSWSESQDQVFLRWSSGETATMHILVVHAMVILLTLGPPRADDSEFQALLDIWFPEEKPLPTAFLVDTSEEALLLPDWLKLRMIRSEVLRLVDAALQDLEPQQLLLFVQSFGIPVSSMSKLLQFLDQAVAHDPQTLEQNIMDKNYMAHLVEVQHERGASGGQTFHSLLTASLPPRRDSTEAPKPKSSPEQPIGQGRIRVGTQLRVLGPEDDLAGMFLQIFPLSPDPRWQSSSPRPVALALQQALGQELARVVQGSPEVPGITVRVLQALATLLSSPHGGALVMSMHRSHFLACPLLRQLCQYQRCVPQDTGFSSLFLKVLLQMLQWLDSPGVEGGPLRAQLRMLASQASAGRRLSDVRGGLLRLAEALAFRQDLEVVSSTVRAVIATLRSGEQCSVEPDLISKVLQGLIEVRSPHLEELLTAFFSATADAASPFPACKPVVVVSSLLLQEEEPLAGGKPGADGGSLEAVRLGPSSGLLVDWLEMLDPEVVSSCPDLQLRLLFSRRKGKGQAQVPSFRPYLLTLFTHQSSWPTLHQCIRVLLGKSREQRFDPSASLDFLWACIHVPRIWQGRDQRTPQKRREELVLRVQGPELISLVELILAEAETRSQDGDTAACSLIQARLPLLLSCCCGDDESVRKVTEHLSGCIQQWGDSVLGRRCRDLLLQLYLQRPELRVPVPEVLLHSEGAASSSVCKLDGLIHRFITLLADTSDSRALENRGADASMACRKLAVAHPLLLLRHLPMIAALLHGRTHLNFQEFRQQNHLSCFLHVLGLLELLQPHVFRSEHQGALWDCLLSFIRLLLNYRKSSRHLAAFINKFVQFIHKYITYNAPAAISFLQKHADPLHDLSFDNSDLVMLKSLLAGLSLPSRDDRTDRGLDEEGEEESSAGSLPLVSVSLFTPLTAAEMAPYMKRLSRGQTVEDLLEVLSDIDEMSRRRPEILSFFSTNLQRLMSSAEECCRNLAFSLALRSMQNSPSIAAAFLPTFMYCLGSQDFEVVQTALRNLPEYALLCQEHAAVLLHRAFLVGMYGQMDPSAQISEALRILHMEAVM
In outline: as §1

For test [3], the target named is T3, AMMECR1L AMMECR1-like protein (Homo sapiens, UniProt Q6DCA0).
T3 construct: 200 μL of lysate containing 5 mg/ml proteome was treated with 2 μL of 100× compound stock; endogenous in cells
T3 sequence (Q6DCA0 whole entry): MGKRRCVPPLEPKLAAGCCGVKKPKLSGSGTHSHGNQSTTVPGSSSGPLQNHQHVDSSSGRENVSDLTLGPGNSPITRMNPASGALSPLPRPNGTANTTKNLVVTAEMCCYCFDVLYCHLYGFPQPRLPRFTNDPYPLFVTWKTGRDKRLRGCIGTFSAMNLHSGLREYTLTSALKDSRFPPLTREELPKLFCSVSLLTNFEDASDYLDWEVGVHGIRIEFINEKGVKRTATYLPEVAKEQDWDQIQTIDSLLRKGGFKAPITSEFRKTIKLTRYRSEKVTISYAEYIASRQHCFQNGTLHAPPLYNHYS
In outline:
as §1

Test [4] concerns the target T4, RNF2 E3 ubiquitin-protein ligase RING2 (Homo sapiens, UniProt Q99496).
T4 construct: Cells were resuspended in cold PBS on ice and sonicated with a probe sonicator to achieve lysis; endogenous in cells
T4 sequence (Q99496 1-336): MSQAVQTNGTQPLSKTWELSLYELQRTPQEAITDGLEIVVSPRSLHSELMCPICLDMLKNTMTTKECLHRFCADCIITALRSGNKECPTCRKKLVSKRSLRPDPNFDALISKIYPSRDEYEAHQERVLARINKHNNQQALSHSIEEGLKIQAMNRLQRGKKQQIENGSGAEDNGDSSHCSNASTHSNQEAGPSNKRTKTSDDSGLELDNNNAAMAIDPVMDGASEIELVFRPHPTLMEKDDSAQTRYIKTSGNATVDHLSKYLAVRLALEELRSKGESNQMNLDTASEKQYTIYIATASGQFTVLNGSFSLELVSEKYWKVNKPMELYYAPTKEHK
In outline: as §1

Test [5] concerns the target T5, TRIP12 E3 ubiquitin-protein ligase TRIP12 (Homo sapiens, UniProt Q14669).
T5 construct: Cells were resuspended in cold PBS on ice and sonicated with a probe sonicator to achieve lysis; endogenous in cells
The conditions noted are these: TRIP12 Res# 1959, uniprot Q14669. In outline:
as §1

In test [6] the target is T6, MYCBP2 E3 ubiquitin-protein ligase MYCBP2 (Homo sapiens, UniProt O75592).
T6 construct: Cells were resuspended in cold PBS on ice and sonicated with a probe sonicator to achieve lysis; endogenous in cells
In outline: as §1

Test [7] has as its target T7, ZC3HC1 Nuclear-interacting partner of ALK (Homo sapiens, UniProt Q86WB0).
T7 construct: Cells were resuspended in cold PBS on ice and sonicated with a probe sonicator to achieve lysis; endogenous in cells
The conditions noted are these: ZC3HC1 Res# 406, uniprot Q86WB0. In outline: as §1

A further test concerns the target T8, VPRBP Protein VPRBP (Homo sapiens, UniProt Q9Y4B6).
T8 construct: Cells were resuspended in cold PBS on ice and sonicated with a probe sonicator to achieve lysis; endogenous in cells
In outline:
as §1

In test [8] the target is T9, UBE4A Ubiquitin conjugation factor E4 A (Homo sapiens, UniProt Q14139).
T9 construct: Cells were resuspended in cold PBS on ice and sonicated with a probe sonicator to achieve lysis; endogenous in cells
The conditions noted are these: UBE4A Res# 79, uniprot Q14139. In outline: as §1

Test [9] concerns the target T10, TNF receptor-associated factor 6 (TRAF6) (Homo sapiens, UniProt Q9Y4K3).
T10 construct: Cells were resuspended in cold PBS on ice and sonicated with a probe sonicator to achieve lysis; endogenous in cells
The conditions noted are these: read-out: percent_inhibition. In outline: as §1

T1 sequence (P53634 25-463): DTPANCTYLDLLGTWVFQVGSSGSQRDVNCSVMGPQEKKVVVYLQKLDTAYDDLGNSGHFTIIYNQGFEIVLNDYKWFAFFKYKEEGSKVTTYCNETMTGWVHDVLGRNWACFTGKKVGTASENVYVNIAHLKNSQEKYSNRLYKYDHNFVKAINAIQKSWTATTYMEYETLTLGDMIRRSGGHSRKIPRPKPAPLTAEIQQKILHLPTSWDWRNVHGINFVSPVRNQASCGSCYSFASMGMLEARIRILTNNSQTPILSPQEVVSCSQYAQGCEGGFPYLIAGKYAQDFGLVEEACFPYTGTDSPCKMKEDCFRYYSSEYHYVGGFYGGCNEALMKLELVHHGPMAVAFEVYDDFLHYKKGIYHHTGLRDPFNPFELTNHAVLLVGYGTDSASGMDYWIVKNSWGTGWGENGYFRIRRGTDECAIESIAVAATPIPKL
T8 sequence (Q9Y4B6 whole entry): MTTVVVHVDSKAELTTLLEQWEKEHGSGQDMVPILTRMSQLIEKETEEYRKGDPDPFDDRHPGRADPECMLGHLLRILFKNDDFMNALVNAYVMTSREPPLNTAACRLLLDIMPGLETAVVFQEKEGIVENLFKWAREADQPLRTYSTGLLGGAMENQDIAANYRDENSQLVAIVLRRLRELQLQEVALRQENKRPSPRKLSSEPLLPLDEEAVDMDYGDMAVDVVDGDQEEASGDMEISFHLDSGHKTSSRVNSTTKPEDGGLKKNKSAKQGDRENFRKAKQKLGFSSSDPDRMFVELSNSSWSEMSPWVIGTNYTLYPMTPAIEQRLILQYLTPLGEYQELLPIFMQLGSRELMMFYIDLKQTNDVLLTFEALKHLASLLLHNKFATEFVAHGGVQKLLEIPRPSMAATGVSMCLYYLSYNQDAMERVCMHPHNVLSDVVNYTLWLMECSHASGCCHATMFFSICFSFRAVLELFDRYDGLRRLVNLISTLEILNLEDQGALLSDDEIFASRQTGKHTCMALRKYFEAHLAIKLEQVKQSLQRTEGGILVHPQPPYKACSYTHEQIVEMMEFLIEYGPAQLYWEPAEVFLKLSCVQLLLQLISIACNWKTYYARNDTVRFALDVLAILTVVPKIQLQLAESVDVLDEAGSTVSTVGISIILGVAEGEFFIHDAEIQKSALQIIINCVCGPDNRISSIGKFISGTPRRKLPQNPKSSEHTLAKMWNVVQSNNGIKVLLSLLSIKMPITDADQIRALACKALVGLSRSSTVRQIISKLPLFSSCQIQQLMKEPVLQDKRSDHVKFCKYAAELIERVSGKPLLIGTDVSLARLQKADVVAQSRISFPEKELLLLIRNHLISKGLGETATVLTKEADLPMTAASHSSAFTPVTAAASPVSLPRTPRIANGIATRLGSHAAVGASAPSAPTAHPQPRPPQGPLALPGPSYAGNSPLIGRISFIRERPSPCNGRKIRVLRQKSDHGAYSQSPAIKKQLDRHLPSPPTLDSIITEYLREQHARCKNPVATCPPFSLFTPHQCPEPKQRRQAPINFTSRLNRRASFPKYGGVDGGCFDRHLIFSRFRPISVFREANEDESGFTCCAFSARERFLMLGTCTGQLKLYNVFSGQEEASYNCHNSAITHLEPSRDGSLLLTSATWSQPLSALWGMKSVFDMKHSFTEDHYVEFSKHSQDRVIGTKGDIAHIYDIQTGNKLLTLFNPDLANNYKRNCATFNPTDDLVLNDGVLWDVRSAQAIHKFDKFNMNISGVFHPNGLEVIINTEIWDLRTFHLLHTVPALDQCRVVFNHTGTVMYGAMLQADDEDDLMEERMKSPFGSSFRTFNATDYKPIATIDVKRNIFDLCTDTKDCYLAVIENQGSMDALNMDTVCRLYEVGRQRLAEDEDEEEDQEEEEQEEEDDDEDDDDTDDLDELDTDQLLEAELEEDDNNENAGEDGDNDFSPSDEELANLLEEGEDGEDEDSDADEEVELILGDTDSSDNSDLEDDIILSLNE
T7 sequence (Q86WB0 whole entry): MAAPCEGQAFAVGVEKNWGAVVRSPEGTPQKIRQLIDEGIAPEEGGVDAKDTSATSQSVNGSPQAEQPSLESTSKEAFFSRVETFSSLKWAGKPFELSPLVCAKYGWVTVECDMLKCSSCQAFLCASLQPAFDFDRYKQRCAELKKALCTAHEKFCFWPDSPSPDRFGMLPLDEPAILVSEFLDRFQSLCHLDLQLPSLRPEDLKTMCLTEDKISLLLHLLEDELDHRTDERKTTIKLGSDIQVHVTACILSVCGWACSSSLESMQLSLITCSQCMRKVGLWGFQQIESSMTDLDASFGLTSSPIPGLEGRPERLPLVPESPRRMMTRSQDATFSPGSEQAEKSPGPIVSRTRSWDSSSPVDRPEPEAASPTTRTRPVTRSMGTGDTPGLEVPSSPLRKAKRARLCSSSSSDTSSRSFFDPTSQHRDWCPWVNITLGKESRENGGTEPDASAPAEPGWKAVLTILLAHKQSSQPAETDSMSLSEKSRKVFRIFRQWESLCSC

In the case of `O=C(CCl)Nc1cc(C(F)(F)F)cc(C(F)(F)F)c1` [KBO3], the Liganded entry in test [1] (CTSC Res# 258, uniprot P53634) is “YES”; in [2] (INTS1 Res# 1534, uniprot Q8N201), “YES”; in test [3] (AMMECR1L Res# 153, uniprot Q6DCA0), “YES”; in test [4] (RNF2 Res# 54, uniprot Q99496), “YES”. For the same compound, the “100 Max” value in test [1] (uniprot P53634) is given as 76.05; in [2] (uniprot Q8N201), 51.25; in [3] (uniprot Q6DCA0), 91.46; in test [4] (uniprot Q99496) it was 18.1. Also, the 100 ave was determined as 76.05 in [1] (uniprot P53634), 36.495 in [2] (uniprot Q8N201), 91.46 in test [3] (uniprot Q6DCA0) and 0.5 in test [4] (uniprot Q99496). For the same compound, the “500 Max” value in test [1] (uniprot P53634) came out at 95.44; in [2] (uniprot Q8N201), 77.65; in test [3] (uniprot Q6DCA0), 85.74; in [4] (uniprot Q99496), 76.8. In addition, the 500 ave in test [1] (uniprot P53634) is recorded as 95.44; in test [2] (uniprot Q8N201), 70.05; in test [3] (uniprot Q6DCA0) it was 85.74; in test [4] (uniprot Q99496), 76.8.
Regarding `COc1ccc2c(c1)CCCN2C(=O)CCl` [KB02], the Liganded entry in test [5] was “YES”; in test [6] (MYCBP2 Res# 1131, uniprot O75592), “YES”; in test [6] (MYCBP2 Res# 3152, uniprot O75592), “YES”; in test [7] it was “YES”; at VPRBP Protein VPRBP (VPRBP Res# 69, uniprot Q9Y4B6), “YES”; on VPRBP Protein VPRBP (VPRBP Res# 967, uniprot Q9Y4B6) it was “YES”. In test [8], the Liganded entry is on record as “YES”.
For the compound `C=CC(=O)N(c1ccccc1)c1ccc(Br)cc1` [KB05], the inhibition at 500 µM in test [9] is 31%.
